Measurements as given in patent publication US8765464B2, “Kit for culturing cells comprising tube with flat wall, extracellular matrix and culture medium” (Kurashiki Boseki Kabushiki Kaisha, priority 2001, dated 2014).
Where a name gives a salt, the structure may show the parent alone.

Assays:
[1] = tested on: Lung-k human primary lung cancer cells; assay: Confirmation test of cell toxicity according to vancomycin amount: preliminary culture step, primary cells; format: cell-based; conditions: human primary culturing cells, after 48 hours from the beginning of the culture
Description: (§1) Specifically, it is confirmed whether the vancomycin in the culture medium of the preliminary culture step has a unfavorable influence upon the cell proliferativity in the preliminary culture step, the cell proliferativity in the proliferative culture step, and the anticancer agent sensitivity test results or not, and then the following test was carried out. Herein, the unfavorable influence means such an influence as causes to decrease the cell proliferativity and success rate of the anticancer agent sensitivity test.
(§2) As to the test material and the number of cells as seeded (test material/number of cells as seeded), the following were used: • C-1 (human colon cancer cell line)/1×10^5 cells/well • A-549 (human lung cancer cell line)/1×10^5 cells/well • MKN-28 human stomach cancer cell line)/1×10^5 cells/well • HFL-1 and WI-38 (human fibroblast cells line)/1×10^5 cells/well • Lung-k human primary lung cancer cells)/5×10^5 cells/well (in the preliminary culture step) or 2×10^5 cells/well (in the proliferative culture step) […]
(§3) […] After the cells were counted with a blood-cell counter board, the cell number per 1 ml of the culture medium was calculated, and the cell proliferativity in the preliminary culture step was observed.

[2] = tested on: C-1, A-549, MKN-28, HFL-1, WI-38 cell lines and Lung-k primary lung cancer cells; assay: Influence of vancomycin amount upon anticancer agent sensitivity test results; format: cell-based, human; conditions: vancomycin not more than 3.0 mg/ml added in the preliminary culture step; Taxol, Taxotere, Gemcitabine, Navelbine
Excerpt: (§4) As to the test material and the number of cells as seeded (test material/number of cells as seeded), the following were used: • C-1 (human colon cancer cell line)/1×10^5 cells/well • A-549 (human lung cancer cell line)/1×10^5 cells/well • MKN-28 human stomach cancer cell line)/1×10^5 cells/well • HFL-1 and WI-38 (human fibroblast cells line)/1×10^5 cells/well • Lung-k human primary lung cancer cells)/5×10^5 cells/well (in the preliminary culture step) or 2×10^5 cells/well (in the proliferative culture step)
(§5) The culture medium in the preliminary culture step was a culture medium as used in Example 1, and only the concentrations of the vancomycin produced by Wako Pure Chemicals Co., Ltd.) therein were settled in the following conditions: 0.1 mg/ml, 0.5 mg/ml, 1.0 mg/ml, 1.5 mg/ml, 2.0 mg/ml, 2.5 mg/ml, 3.0 mg/ml, 4.0 mg/ml, and 5.0 mg/ml, and tests were carried out in each condition. […]
(§6) (5) The resultant test plate is quantitatively analyzed with an image analyzer, and then the unfavorable influence upon the cell proliferativity and the anticancer agent sensitivity test results (antitumor effect T/C (%): relative proliferation ratio T/C (%) between a group non-treated with anticancer agents (C) and a group treated with anticancer agents (T), in the case where the ratio is not more than 50%, it is defined as having a sensitivity.) are observed. […]

[3] = tested on: C-1, A-549, MKN-28, HFL-1, WI-38 cell lines and Lung-k primary lung cancer cells; assay: Confirmation test of cell toxicity according to vancomycin amount: cell proliferativity in proliferative culture step; format: cell-based, human; conditions: vancomycin not more than 3.0 mg/ml added in the preliminary culture step; after 7 days culture
Excerpt: as §4, §5, §6

[4] = tested on: C-1, A-549, MKN-28, HFL-1 and WI-38 cell lines; assay: Confirmation test of cell toxicity according to vancomycin amount: cell proliferativity in preliminary culture step, cell lines; format: cell-based, human; conditions: various cells, after 48 hours from the beginning of the culture
Description: as §1, §2, §3

SMILES: CN[C@H](CC(C)C)C(=O)N[C@H]1C(=O)N[C@@H](CC(N)=O)C(=O)N[C@H]2C(=O)N[C@H]3C(=O)N[C@H](C(=O)N[C@H](C(=O)O)c4cc(O)cc(O)c4-c4cc3ccc4O)[C@H](O)c3ccc(c(Cl)c3)Oc3cc2cc(c3O[C@@H]2O[C@H](CO)[C@@H](O)[C@H](O)[C@H]2O[C@H]2C[C@](C)(N)[C@H](O)[C@H](C)O2)Oc2ccc(cc2Cl)[C@H]1O [vancomycin, vancomycin hydrochloride]
- vancomycin concentration at which the cell number was maintained and cell toxicity (cells-killing action) was not observed [1]: not more than 3.0 mg/ml
- unfavorable influence upon the anticancer agent sensitivity test results (antitumor effect T/C (%)) [2]: no unfavorable influence
- unfavorable influence upon the cell proliferativity in the proliferative culture step [3]: not found
- vancomycin concentration at which the cell proliferation was as good as without vancomycin [4]: not more than 2.0 mg/ml
